Assay results from patent US12201640B2, “19-nor C3,3-disubstituted C21-n-pyrazolyl steroids and methods of use thereof” (Sage Therapeutics, Inc., priority 2013, dated 2025).

What was measured:
[1] = biological target: T1, GABAA receptor α1β2γ2 (Homo sapiens, UniProt P14867+P47870); assay: Patch clamp electrophysiology, Qpatch in Ltk cells; assay type: cell-based; details: 10 μM test article, GABA EC20 2 μM, read-out: GABA (α1β2γ2) Qpatch in Ltk, % efficacy at 10 μM
T1 construct: expressed in transfected cells
Procedure: (§1) Patch Clamp Electrophysiology of Recombinant α1β2γ2 and α4β3δ GABAA Receptors
(§2) Cellular electrophysiology is used to measure the pharmacological properties of our GABAA receptor modulators in heterologous cell systems. Each compound is tested for its ability to affect GABA mediated currents at a submaximal agonist dose (GABA EC20=2 μM). LTK cells are stably transfected with the α1β2γ2 subunits of the GABA receptor and CHO cells are transiently transfected with the α4β3δ subunits via the Lipofecatamine method. Cells were passaged at a confluence of about 50-80% and then seeded onto 35 mm sterile culture dishes containing 2 ml culture complete medium without antibiotics or antimycotics. Confluent clusters of cells are electrically coupled (Pritchett et al., Science, 1988, 242, 1306-1308.). Because responses in distant cells are not adequately voltage clamped and because of uncertainties about the extent of coupling (Verdoorn et al., Neuron 1990, 4, 919-928.), cells were cultivated at a density that enables the recording of single cells (without visible connections to other cells).
(§3) Whole cell currents were measured with HEKA EPC-10 amplifiers using PatchMaster software or by using the high throughput QPatch platform (Sophion). Bath solution for all experiments contained (in mM): NaCl 137 mM, KCl 4 mM, CaCl2 1.8 mM, MgCl2 1 mM, HEPES 10 mM, D-Glucose 10 mM, pH (NaOH) 7.4. In some cases 0.005% cremophor was also added. Intracellular (pipette) solution contained: KCl 130 mM, MgCl2 1 mM, Mg-ATP 5 mM, HEPES 10 mM, EGTA 5 mM, pH 7.2. During experiments, cells and solutions were maintained at room temperature (19° C.-30° C.). For manual patch clamp recordings, cell culture dishes were placed on the dish holder of the microscope and continuously perfused (1 ml/min) with bath solution. After formation of a Gigaohm seal between the patch electrodes and the cell (pipette resistance range: 2.5 MΩ-6.0 MΩ; seal resistance range: >1 GΩ) the cell membrane across the pipette tip was ruptured to assure electrical access to the cell interior (whole-cell patch-configuration). For experiments using the QPatch system, cells were transferred as suspension to the QPatch system in the bath solution and automated whole cell recordings were performed.
(§4) Cells were voltage clamped at a holding potential of −80 mV. For the analysis of test articles, GABA receptors were stimulated by 2 μM GABA after sequential pre-incubation of increasing concentrations of the test article. Pre-incubation duration was 30 s and the duration of the GABA stimulus was 2 s. Test articles were dissolved in DMSO to form stock solutions (10 mM). Test articles were diluted to 0.01, 0.1, 1, and 10 μM in bath solution. All concentrations of test articles were tested on each cell. The relative percentage potentiation was defined as the peak amplitude in response to GABA EC20 in the presence of the test article divided by the peak amplitude in response to GABA EC20 alone, multiplied by 100.

[2] = biological target: [35S]-TBPS binding, rat brain cortical membranes (GABA receptor complex); assay: Steroid inhibition of [35S]-TBPS binding; details: 3 nM [35S]-TBPS, 5 μM GABA
Procedure: Steroid Inhibition of TBPS Binding
[35S]-t-Butylbicyclophosphorothionate (TBPS) binding assays using rat brain cortical membranes in the presence of 5 μM GABA has been described (Gee et al, J. Pharmacol. Exp. Ther. 1987, 241, 346-353; Hawkinson et al, Mol. Pharmacol. 1994, 46, 977-985; Lewin, A. H et al., Mol. Pharmacol. 1989, 35, 189-194).
Briefly, cortices are rapidly removed following decapitation of carbon dioxide-anesthetized Sprague-Dawley rats (200-250 g). The cortices are homogenized in 10 volumes of ice-cold 0.32 M sucrose using a glass/teflon homogenizer and centrifuged at 1500×g for 10 min at 4° C. The resultant supernatants are centrifuged at 10,000×g for 20 min at 4° C. to obtain the P2 pellets. The P2 pellets are resuspended in 200 mM NaCl/50 mM Na-K phosphate pH 7.4 buffer and centrifuged at 10,000×g for 10 min at 4° C. This washing procedure is repeated twice and the pellets are resuspended in 10 volumes of buffer. Aliquots (100 μL) of the membrane suspensions are incubated with 3 nM [^35S]-TBPS and 5 μL aliquots of test drug dissolved in dimethyl sulfoxide (DMSO) (final 0.5%) in the presence of 5 μM GABA. The incubation is brought to a final volume of 1.0 mL with buffer. Nonspecific binding is determined in the presence of 2 μM unlabeled TBPS and ranged from 15 to 25%. Following a 90 min incubation at room temp, the assays are terminated by filtration through glass fiber filters (Schleicher and Schuell No. 32) using a cell harvester (Brandel) and rinsed three times with ice-cold buffer. Filter bound radioactivity is measured by liquid scintillation spectrometry. Non-linear curve fitting of the overall data for each drug averaged for each concentration is done using Prism (GraphPad). […] The concentration of test compound producing 50% inhibition (IC50) of specific binding and the maximal extent of inhibition (Imax) are determined for the individual experiments with the same model used for the overall data and then the means±SEM.s of the individual experiments are calculated.
Various compounds are or can be screened to determine their potential as modulators of [^35S]-TBPS binding in vitro. These assays are or can be performed in accordance with the above discussed procedures.

[3] = biological target: T2, GABAA receptor α4β3δ (Homo sapiens, UniProt P28472+P48169); assay: Patch clamp electrophysiology, manual patch in CHO cells; assay type: cell-based; details: 10 μM test article, GABA EC20 2 μM, read-out: GABA (α4β3δ) Manual patch in CHO, % efficacy at 10 μM
T2 construct: expressed in transfected cells; host or cells: CHO cells (transient, lipofection)
Procedure: as §1, §2, §3, §4

[4] = biological target: T3, GABAA-R (Homo sapiens, UniProt P14867+P47870); assay: Electrophysiological evaluation at GABAA-R (Table 2); assay type: cell-based; details: GABAA-R electrophysiology; for EC50: read-out: EC50
T3 sequence (P14867 1-456): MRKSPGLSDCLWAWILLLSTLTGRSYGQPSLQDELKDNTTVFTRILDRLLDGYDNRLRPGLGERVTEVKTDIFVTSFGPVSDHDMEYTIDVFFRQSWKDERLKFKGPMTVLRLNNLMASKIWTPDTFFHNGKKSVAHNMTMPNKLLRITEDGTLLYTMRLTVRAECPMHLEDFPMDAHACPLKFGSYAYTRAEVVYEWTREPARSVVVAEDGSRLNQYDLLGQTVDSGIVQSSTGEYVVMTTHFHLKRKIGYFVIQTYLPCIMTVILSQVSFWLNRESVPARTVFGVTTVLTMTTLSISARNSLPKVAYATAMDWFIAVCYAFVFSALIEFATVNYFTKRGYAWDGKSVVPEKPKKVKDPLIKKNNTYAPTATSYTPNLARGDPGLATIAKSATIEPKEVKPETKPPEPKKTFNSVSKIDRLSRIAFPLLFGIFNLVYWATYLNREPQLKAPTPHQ
T3 sequence (P47870 1-512): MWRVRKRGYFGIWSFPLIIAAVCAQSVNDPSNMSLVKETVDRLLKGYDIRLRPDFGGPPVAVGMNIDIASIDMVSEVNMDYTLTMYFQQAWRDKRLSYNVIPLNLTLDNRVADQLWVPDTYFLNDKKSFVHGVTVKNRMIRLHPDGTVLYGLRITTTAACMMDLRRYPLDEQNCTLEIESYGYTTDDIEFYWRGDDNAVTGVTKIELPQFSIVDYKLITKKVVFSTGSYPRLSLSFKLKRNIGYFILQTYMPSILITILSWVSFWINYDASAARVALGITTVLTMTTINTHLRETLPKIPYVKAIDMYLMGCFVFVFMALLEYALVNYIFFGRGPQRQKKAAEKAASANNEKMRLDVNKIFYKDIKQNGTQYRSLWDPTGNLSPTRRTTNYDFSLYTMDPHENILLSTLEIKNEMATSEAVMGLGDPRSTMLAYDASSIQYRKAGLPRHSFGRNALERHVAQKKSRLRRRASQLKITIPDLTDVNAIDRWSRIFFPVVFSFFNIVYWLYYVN
Procedure: as §1, §2, §3, §4

T1 sequence (P18507 40-475 partner, one chain of several): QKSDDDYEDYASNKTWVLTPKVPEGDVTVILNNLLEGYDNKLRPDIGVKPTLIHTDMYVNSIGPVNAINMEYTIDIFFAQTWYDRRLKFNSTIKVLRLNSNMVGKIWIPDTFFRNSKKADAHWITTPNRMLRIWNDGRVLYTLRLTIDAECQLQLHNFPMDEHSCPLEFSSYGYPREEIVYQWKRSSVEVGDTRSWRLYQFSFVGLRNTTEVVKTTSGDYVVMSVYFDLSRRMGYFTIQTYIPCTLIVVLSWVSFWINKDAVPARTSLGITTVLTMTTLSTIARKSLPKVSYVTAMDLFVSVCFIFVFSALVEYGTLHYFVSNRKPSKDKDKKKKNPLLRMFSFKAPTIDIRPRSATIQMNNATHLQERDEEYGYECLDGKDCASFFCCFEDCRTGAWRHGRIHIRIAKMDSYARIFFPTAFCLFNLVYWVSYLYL
T2 sequence (P48169 36-554): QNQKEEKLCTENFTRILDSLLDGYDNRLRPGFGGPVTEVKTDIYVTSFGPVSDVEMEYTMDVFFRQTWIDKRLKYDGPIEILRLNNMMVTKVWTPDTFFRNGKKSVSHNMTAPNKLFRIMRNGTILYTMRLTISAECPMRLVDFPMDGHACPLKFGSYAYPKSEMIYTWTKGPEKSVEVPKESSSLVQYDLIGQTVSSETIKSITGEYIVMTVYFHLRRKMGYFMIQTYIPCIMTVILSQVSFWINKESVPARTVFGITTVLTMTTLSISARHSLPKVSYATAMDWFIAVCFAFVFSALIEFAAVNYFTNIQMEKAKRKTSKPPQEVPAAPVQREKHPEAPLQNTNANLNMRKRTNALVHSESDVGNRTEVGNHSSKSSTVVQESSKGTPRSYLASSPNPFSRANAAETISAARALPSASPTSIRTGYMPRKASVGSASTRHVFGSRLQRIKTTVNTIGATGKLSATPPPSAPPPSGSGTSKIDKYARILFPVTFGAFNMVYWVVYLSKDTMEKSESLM
T2 sequence (P28472 26-473): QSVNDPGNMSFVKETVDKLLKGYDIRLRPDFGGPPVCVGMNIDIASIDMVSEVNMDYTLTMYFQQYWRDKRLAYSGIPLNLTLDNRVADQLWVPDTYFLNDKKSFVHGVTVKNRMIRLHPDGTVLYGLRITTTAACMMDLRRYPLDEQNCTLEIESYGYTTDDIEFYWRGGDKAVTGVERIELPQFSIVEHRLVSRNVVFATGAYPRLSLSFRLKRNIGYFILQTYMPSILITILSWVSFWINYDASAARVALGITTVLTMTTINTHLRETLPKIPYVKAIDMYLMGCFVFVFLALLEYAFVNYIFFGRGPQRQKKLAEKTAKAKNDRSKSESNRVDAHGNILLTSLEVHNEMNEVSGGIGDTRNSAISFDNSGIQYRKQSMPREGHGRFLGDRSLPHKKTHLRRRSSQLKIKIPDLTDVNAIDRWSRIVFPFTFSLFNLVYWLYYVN
T2 sequence (O14764 25-452 partner): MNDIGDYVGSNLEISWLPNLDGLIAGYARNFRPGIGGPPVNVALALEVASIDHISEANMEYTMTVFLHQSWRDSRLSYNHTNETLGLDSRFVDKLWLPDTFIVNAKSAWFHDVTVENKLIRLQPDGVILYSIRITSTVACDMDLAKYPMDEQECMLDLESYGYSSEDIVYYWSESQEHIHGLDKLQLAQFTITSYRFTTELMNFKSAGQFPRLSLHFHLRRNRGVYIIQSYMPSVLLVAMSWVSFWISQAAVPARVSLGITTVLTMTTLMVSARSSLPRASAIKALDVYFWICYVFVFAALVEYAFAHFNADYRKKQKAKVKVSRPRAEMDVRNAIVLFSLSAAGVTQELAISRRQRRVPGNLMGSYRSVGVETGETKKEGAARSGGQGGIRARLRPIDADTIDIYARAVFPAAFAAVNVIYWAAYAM

C[C@@]1(O)CC[C@@H]2[C@H]3CC[C@]4(C)[C@@H](C(=O)Cn5cccn5)CC[C@H]4[C@@H]3C[C@@H](F)[C@H]2C1 [SB-10]
Emax at 10 µM [1]: 100 to 500%
IC50 [2]: 100 to 500 nM
Emax at 10 µM [3]: 100 to 500%

C[C@]12CC[C@H]3[C@@H](CC[C@@H]4C[C@@](O)(CF)CC[C@@H]43)[C@@H]1CC[C@@H]2C(=O)Cn1cc(C#N)cn1 [SA-32]
Emax at 10 µM [1]: > 500%
IC50 [2]: 10 to 50 nM
Emax at 10 µM [3]: > 500%

C[C@@]1(O)CC[C@H]2[C@H](CC[C@@H]3[C@@H]2CC[C@]2(C)[C@@H](C(=O)Cn4nccc4C(F)(F)F)CC[C@@H]32)C1 [SA-2]
Emax at 10 µM [1]: > 500%
Emax [4]: 500 to 1000%
EC50 [4]: > 2000 nM
IC50 [2]: 50 to 100 nM

COC[C@@]1(O)CC[C@H]2[C@@H](CC[C@@H]3[C@@H]2CC[C@]2(C)[C@@H](C(=O)Cn4cc(C#N)cn4)CC[C@@H]32)C1 [SB-5]
Emax at 10 µM [1]: > 500%
IC50 [2]: 10 to 50 nM
Emax at 10 µM [3]: 100 to 500%

Cc1ccn(CC(=O)[C@H]2CC[C@H]3[C@@H]4CC[C@@H]5C[C@](C)(O)CC[C@@H]5[C@H]4CC[C@]23C)n1 [SA-11]
Emax at 10 µM [1]: > 500%
Emax [4]: 500 to 1000%
EC50 [4]: 1000 to 2000 nM
IC50 [2]: 10 to 50 nM

C[C@@]1(O)CC[C@H]2[C@H](CC[C@@H]3[C@@H]2CC[C@]2(C)[C@@H](C(=O)Cn4cc([N+](=O)[O-])cn4)CC[C@@H]32)C1 [SA-8]
Emax at 10 µM [1]: 100 to 500%
Emax [4]: 0 to 500%
EC50 [4]: 1000 to 2000 nM
IC50 [2]: 10 to 50 nM

C[C@@]1(O)CC[C@@H]2[C@H]3CC[C@]4(C)[C@@H](C(=O)Cn5cc(S(C)(=O)=O)cn5)CC[C@H]4[C@@H]3C[C@@H](F)[C@H]2C1 [SB-15]
Emax at 10 µM [1]: 100 to 500%
Emax at 10 µM [3]: > 500%

CC(=O)c1ccn(CC(=O)[C@H]2CC[C@H]3[C@@H]4CC[C@@H]5C[C@](C)(O)CC[C@@H]5[C@H]4CC[C@]23C)n1 [SA-5]
Emax at 10 µM [1]: > 500%
EC50 [4]: > 2000 nM
IC50 [2]: < 10 nM

C[C@@]1(O)CC[C@H]2[C@@H](CC[C@@H]3[C@@H]2CC[C@]2(C)[C@@H](C(=O)Cn4cccn4)CC[C@@H]32)C1 [SB-1]
Emax at 10 µM [1]: 100 to 500%
IC50 [2]: 100 to 500 nM
Emax at 10 µM [3]: 100 to 500%

C[C@@]1(O)CC[C@H]2[C@H](CC[C@@H]3[C@@H]2CC[C@]2(C)[C@@H](C(=O)Cn4cc(Br)cn4)CC[C@@H]32)C1 [SA-9]
Emax at 10 µM [1]: 100 to 500%
Emax [4]: 0 to 500%
EC50 [4]: 100 to 500 nM
IC50 [2]: 10 to 50 nM
Emax at 10 µM [3]: > 500%

C[C@@]1(O)CC[C@H]2[C@H](CC[C@@H]3[C@@H]2CC[C@]2(C)[C@@H](C(=O)Cn4cc(Cl)cn4)CC[C@@H]32)C1 [SA-7]
Emax at 10 µM [1]: > 500%
Emax [4]: 0 to 500%
EC50 [4]: 1000 to 2000 nM
IC50 [2]: 10 to 50 nM
Emax at 10 µM [3]: > 500%

C[C@@]1(O)CC[C@H]2[C@@H](CC[C@@H]3[C@@H]2CC[C@]2(C)[C@@H](C(=O)Cn4cc(C#N)cn4)CC[C@@H]32)C1 [SB-2]
Emax at 10 µM [1]: 100 to 500%
Emax at 10 µM [3]: 100 to 500%

C[C@@]1(O)CC[C@H]2[C@H](CC[C@@H]3[C@@H]2CC[C@]2(C)[C@@H](C(=O)Cn4ccc(C(F)(F)F)n4)CC[C@@H]32)C1 [SA-1]
Emax at 10 µM [1]: > 500%
Emax [4]: 500 to 1000%
EC50 [4]: 1000 to 2000 nM
IC50 [2]: < 10 nM

Cc1ccnn1CC(=O)[C@H]1CC[C@H]2[C@@H]3CC[C@@H]4C[C@](C)(O)CC[C@@H]4[C@H]3CC[C@]12C [SA-10]
Emax at 10 µM [1]: 100 to 500%
Emax [4]: 0 to 500%
EC50 [4]: > 2000 nM
IC50 [2]: 50 to 100 nM

C[C@@]1(O)CC[C@@H]2[C@H]3CC[C@]4(C)[C@@H](C(=O)Cn5cc(C#N)cn5)CC[C@H]4[C@@H]3C[C@@H](F)[C@H]2C1 [SB-11]
Emax at 10 µM [1]: 100 to 500%
Emax at 10 µM [3]: > 500%

COC[C@@]1(O)CC[C@H]2[C@H](CC[C@@H]3[C@@H]2CC[C@]2(C)[C@@H](C(=O)Cn4cc(C#N)cn4)CC[C@@H]32)C1 [SA-24]
Emax at 10 µM [1]: > 500%
IC50 [2]: 10 to 50 nM
Emax at 10 µM [3]: > 500%
